From patent US5006540A, “Substituted 3-aminosydnonimines, processes for their preparation and their use” (Cassella Aktiengesellschaft, priority 1988, dated 1991)
Where a name gives a salt, the structure may show the parent alone.

System: spiral strips of the arteria pulmonalis of the guinea pig
Test: Relaxing action on K+-depolarized, CaCl2-contracted spiral strips of guinea pig arteria pulmonalis (modified method of Godfraind and Kaba and of Schumann et al.)
Details: Cavia porcellus; depolarized with 40 mmol/l potassium in calcium-free Tyrode solution; contraction by 0.5 mmol/l CaCl2; cumulative addition; mean value of 4 to 6 strips of vessel; read-out: IC50: concentration of test substance which inhibits the contraction by 50%
Source text: The pharmacological action of the compound of the formula I has been determined by a modified method of Godfraind and Kaba (Arch. Int. Pharmacodyn. Ther. 196, (Suppl) 35 to 49, 1972) and of Schumann et al. (Naunyn-Schmiedeberg's Arch. Pharmacol. 289, 409 to 418, 1975). In this method, spiral strips of the arteria pulmonalis of the guinea pig are depolarized with 40 mmol/l of potassium after equilibration in calcium-free Tyrode solution. Addition of 0.5 mmol/l of CaCl2 then induces a contraction. The relaxing action of the test substance is determined by cumulative addition of concentrations graduated in 1/2 log 10. The concentration of test substance which inhibits the contraction by 50% (=IC50, mol/l) is determined from the concentration/ effect curve (abscissa: -log mol/l of test substance, ordinate: % inhibition of the maximum contraction, mean value of 4 to 6 strips of vessel). The IC50 values thus obtained are stated in the following table.

Row | SMILES | IC50
1 | N=c1c[n+](NC2CCCCC2)[n-]o1 [Example 4e, 3-Cyclohexylamino-sydnonimine hydrochloride] | 2 µM
2 | N=c1c[n+](NC2CCCCC2O)[n-]o1 (centres unmarked) [Example 5b, 3-(2-Hydroxycyclohexyl-amino)-sydnonimine hydrochloride] | 1 µM
3 | CCN[n+]1cc(=N)o[n-]1 [Example 2, 3-Ethylamino-sydnonimine hydrochloride] | 2 µM
4 | CCOC(=O)[N-]c1cn(N2CCOCC2)n[o+]1 [Molsidomine, N-ethoxycarbonyl-3-morpholino-sydnonimine, reference compound] | > 100 µM
5 | N=c1c[n+](NCCO)[n-]o1 [Example 1a, 3-(2-Hydroxyethylamino)-sydnonimine hydrochloride] | 2 µM
